The target of this test is SARS-CoV-2 Mpro (Severe acute respiratory syndrome coronavirus 2, UniProt P0DTD1). Put plainly: biochemical. The note with it: isolated compounds at 100 µg/mL; triplicate, mean (Figure 3).

SMILES strings stand for the structures.

`C=C(C)[C@@H]1CC[C@]2(C(=O)O)CC[C@]3(C)[C@H](CC[C@@H]4[C@@]5(C)CC[C@H](O)C(C)(C)[C@@H]5CC[C@]43C)[C@@H]12` [V10, betulinic acid] came in with an inhibition at 100 µg/mL of 0%.

The values are drawn from paper PMC13305993, “Bioassay-Guided Phytochemical Investigation of Vietnamese Vitex rotundifolia Leaves and the Liverwort Ptychanthus striatus as Sources of SARS-CoV-2 Main Protease Inhibitors” (Molecules, 2026).
